Laboratory results published in PMC7531004, “Discovery of gramicidin A analogues with altered activities by multidimensional screening of a one-bead-one-compound library” (Nature Communications, 2020).
Values joined by “and” are separate entries in the source; they are usually repeats but may differ in a detail not shown here. Equal entries are not always repeated. Where two headings read alike, the source gives them in different places. Where a SMILES comes first, the peptide text is derived from it. [ ]: non-standard residue; d: D form. The star is where a group is joined. NHCH2CH2OH = OCCN*; For = O=C*

Columns and labels:
[1] = Membrane disruption assay of purified peptides (carboxyfluorescein leakage); format: biochemical; parameters: key: % lysis; Triton X-100 = 100%, DMSO = 0%; settings: three replicate lines
Procedure: Membrane disruption assay of purified peptides. 5(6)-Carboxyfluorescein (CF)-encapsulated large […]
through Nuclepore polycarbonate filters mounted in the mini-extruder apparatus. A solution of egg yolk phosphatidylcholine (EYPC, 22.0 mg, 28.9 µmol) in CHCl3 (225 µL) and egg yolk phosphatidylglycerol (1.2 0 […]
mM HEPES, 100 mM NaCl, 20 mM CF) by sonication. After five -times freeze-thaw cycles, the lipid […]
concentration of the resultant CF -encapsulated LUV suspension was deduced from the phosphatidylcholine concentration determined by using Phospholipid C -Test Wako. The lipid concentration of the LUV […]
as 5-fold serial dilution. The solution of peptide (2.0 µL) and the CF-encapsulated LUV suspension (200 […]
The resultant suspension was incubated at room temperature for 30 min. The fluorescence (Ex. 490 nm/Em. 517 nm) of each well was measured on Gemini EM microplate reader. Triton X-100/H2O (5/95, 3.0 µL), DMSO (2.0 µL), and the LUV suspension were mixed in each plate to determine 100% lysis. […]
was used to determine 0% lysis. The membrane disruption activities of tested peptides ( I) were normalized against 100% lysis by Triton X-100 (Imax) and 0% lysis by DMSO ( I0) according to Supplementary Equation 2 , where Ix is the fluorescence intensity.
The membrane disruption activities of the purified peptides were plotted as means of three replicates (Supplementary Figure 1).

[2] = Procedure: Second, we examined the cytotoxicity toward mammalian cancer cells and hemolytic activity of 1. […] Hemolytic activity was evaluated by monitoring hemoglobin leakage from rabbit red blood cells as a consequence of membrane damage. The concentration of 1 required to cause 10% hemoglobin leakage (HC10) was 160 nM. Thus, the P388 cytotoxicity of 1 was 28-fold more sensitive than its hemolytic activity.
Mammalian cytotoxicity assay of purified peptides.
B22 was diluted with the growth medium with 2% DMSO to various concentrations as 5-fold serial dilution.
The collected cells were resuspended into
the growth medium at 2 × 10^4 cells/mL. Aliquots of the former medium (2% DMSO, 100 µL) containing
peptides and the latter medium containing P388 cells (100 µL) were mixed in a 96-well cell culture plate
(TR5003, TrueLine). The final concentration of P388 cells and DMSO were 1 × 10^4 cells/mL and 1%,
respectively. […]
were determined by WST -1 assay. A solution of 1-methoxy PMS and WST-1 in the growth medium
(1-methoxy PMS 0.70 mg/mL in Milli-Q/WST-1 3.6 mg/mL in pH 7.4 HEPES buffer = 1/9) was added to
each well of the plate (20.0 µL/well). The cells were incubated for 4 h under atmosphere of 5% CO 2 at
37 °C. The absorbance of each well at 415 nm was measured using a Benchmark microplate reader
(Bio-Rad) or Thermo Scientifi c Multiskan GO (Thermo Fisher Scientific). The cytotoxicities of the purified
peptides were evaluated as IC 50 (nM) by means of three replicates. Sigmoidal curve fittings were performed

[3] = tested on: Streptococcus agalactiae JCM5671; settings: for Antibacterial activity MIC: JCM5671; for antibacterial activity/MIC: S. agalactiae
Procedure: (§1) Third, 1 was subjected to five pathogenic Gram-positive bacteria.
(§2) Evaluation of antibacterial spectra of purified peptides. The MIC assay was performed according to the Clinical and Laboratory Standards Institute protocols. The antibacterial activities of the purified peptides A1, B01–B04, B11–B13, B21, and B22 were measured using the broth microdilution method. 6 Serial dilutions of the peptides were prepared in cation adjusted Mueller Hinton Broth. Each dilution (100 µL) was dispensed to each well of the round-bottom plate to obtain final concentrations ranging from 64 µg/mL to 0.00024 µg/mL. Bacteria were grown at 37 °C overnight on Tryptic Soy Broth or Mueller Hinton Broth agar plates.
(§3) The bacterial colonies were suspended in 0.9% saline to obtain OD 625 of 0.08–0.13 using a spectrophotometer UV-1280 (Shimadzu). The resultant suspension was diluted with cation adjusted Mueller Hinton Broth (1/20). The resultant mixture (10 .0 µL) was inoculated to each well of the plates (approximately 5 × 10^4 CFU/well), mixed, and incubated at 37 °C for 18–24 h. The MIC value was determined as the minimum concentration that inhibited growth of bacteria. For Streptococcus species, cation adjusted Mueller Hinton Broth supplemented with 5% laked horse blood was used. […]

[4] = tested on: Enterococcus faecalis JCM5803; settings: for antibacterial activity/MIC: E. faecalis; for Antibacterial activity MIC: JCM5803
Procedure: as §1, §2, §3

[5] = tested on: Streptococcus pneumoniae NBRC 102642; settings: for antibacterial activity/MIC: S. pneumoniae
Procedure: as §1, §2, §3

[6] = tested on: Streptococcus pyogenes SSI-9; settings: for antibacterial activity/MIC: S. pyogenes
Procedure: as §1, §2, §3

[7] = tested on: Listeria monocytogenes 10403S; settings: for antibacterial activity/MIC: L. monocytogenes
Procedure: as §1, §2, §3

[8] = tested on: MSSA1 (methicillin-susceptible Staphylococcus aureus); format: cell-based
Procedure: as §2, §3

[9] = cytotoxicity against P388 cells/IC50

| Antibacterial activity MIC [3] | antibacterial activity/MIC [3] | antibacterial activity/MIC [4] | Antibacterial activity MIC [4] | antibacterial activity/MIC [5] | antibacterial activity/MIC [6] | antibacterial activity/MIC [7] | SMILES | Supplementary Figure 1 dose-response value ([1]; concentration 0.000512 nM) | Supplementary Figure 1 dose-response value ([1]; concentration 0.00256 nM) | Supplementary Figure 1 dose-response value ([1]; concentration 0.0128 nM) | Supplementary Figure 1 dose-response value ([1]; concentration 0.064 nM) | Supplementary Figure 1 dose-response value ([1]; concentration 0.32 nM) | Supplementary Figure 1 dose-response value ([1]; concentration 1.6 nM) | Supplementary Figure 1 dose-response value ([1]; concentration 8 nM) | Supplementary Figure 1 dose-response value ([1]; concentration 40 nM) | Supplementary Figure 1 dose-response value ([1]; concentration 200 nM) | Supplementary Figure 1 dose-response value ([1]; concentration 1000 nM) | Supplementary Figure 1 dose-response value ([1]; concentration 5000 nM) | IC50 ([2]; Cytotoxicity IC50) | IC50 [2, 9] | further results |
| --- | --- | --- | --- | --- | --- | --- | --- | --- | --- | --- | --- | --- | --- | --- | --- | --- | --- | --- | --- | --- | --- |
| 8.7 µM | 16 µg/mL | 0.5 µg/mL | 0.27 µM | 0.0039 µg/mL | 0.03 µg/mL | 8 µg/mL | CC(C)C[C@@H](NC(=O)[C@H](Cc1c[nH]c2ccccc12)NC(=O)[C@H](NC(=O)[C@@H](NC(=O)[C@H](NC(=O)[C@H](C)NC(=O)[C@H](NC(=O)[C@H](C)NC(=O)CNC(=O)[C@@H](NC=O)C(C)C)C(C)C)C(C)C)C(C)C)C(C)C)C(=O)N[C@@H](Cc1c[nH]c2ccccc12)C(=O)N[C@@H](C(=O)N[C@@H](Cc1c[nH]c2ccccc12)C(=O)N[C@@H](C(=O)N[C@@H](Cc1c[nH]c2ccccc12)C(=O)NCCO)C(C)C)C(C)C [B01] (For-VGA[dV]A[dV]V[dV]W[dL]W[dV]W[dV]W-NHCH2CH2OH) | 5.613 and 12.0264 and 5.319 | 11.158 and 7.538 and 10.5473 | 8.299 and 14.9537 and 14.0939 | 5.499 and 8.531 and 5.078 | 13.2144 and 15.7695 and 7.692 | 9.848 and 4.6318 and 9.4348 | 14.4288 and 20.3717 and 10.7944 | 26.5947 and 14.0138 and 18.3251 | 33.1976 and 27.0157 and 30.6543 | 29.7517 and 27.7024 and 34.1347 | 48.3001 and 45.6479 and 77.7437 | 17 nM | 17.5 ± 12 nM | Antibacterial activity MIC ([5]; NBRC 102642): 0.0021 µM; Antibacterial activity MIC ([6]; SSI-9): 0.016 µM; Antibacterial activity MIC ([7]; 10403S): 4.3 µM; antibacterial activity/MIC [8]: 16 µg/mL |
| 8.6 µM | 16 µg/mL | 2 µg/mL | 1.1 µM | 0.016 µg/mL | 0.13 µg/mL | 4 µg/mL | CC(C)C[C@@H](NC(=O)[C@H](C)NC(=O)CNC(=O)[C@@H](NC=O)C(C)C)C(=O)N[C@@H](C)C(=O)N[C@@H](C(=O)N[C@H](C(=O)N[C@@H](C(=O)N[C@@H](Cc1c[nH]c2ccccc12)C(=O)N[C@H](CC(C)C)C(=O)N[C@@H](Cc1c[nH]c2ccccc12)C(=O)N[C@H](CC(C)C)C(=O)N[C@@H](Cc1c[nH]c2ccccc12)C(=O)N[C@@H](C(=O)N[C@@H](Cc1c[nH]c2ccccc12)C(=O)NCCO)C(C)C)[C@H](C)O)C(C)C)C(C)C [B12] (For-VGA[dL]A[dV]V[dT]W[dL]W[dL]W[dV]W-NHCH2CH2OH) | 14.3151 and 14.218 and 7.531 | 2.34 and -6.416 and 3.105 | 5.88 and 8.131 and 3.94 | 3.705 and 7.973 and 3.229 | 3.808 and 6.955 and 6.51 | 8.996 and 0.3041 and 5.919 | 7.9647 and 15.5867 and 17.3879 | 5.306 and 8.903 and 13.6255 | 28.0368 and 20.6509 and 3.758 | 25.4415 and 27.5334 and 28.0661 | 41.4626 and 58.8643 and 47.4572 | 390 nM | 387 ± 90.9 nM | IC50 ([2]; IC50, mammalian cytotoxicity assay): 340 nM; antibacterial activity/MIC [8]: 4 µg/mL |
